According to the NIST ThermoML archive (doi:10.1021/je900672g):

Assay: isobaric coefficient of expansion
Conditions: Liquid, DSC

CCC[N+](=O)[O-] [1-nitropropane]
isobaric coefficient of expansion
Conditions	278.15 K	288.15 K	298.15 K	308.15 K	318.15 K	328.15 K	338.15 K	348.15 K
5000 kPa	0.00105 1/K	0.00106 1/K	0.00108 1/K	0.00109 1/K	0.00113 1/K	0.00115 1/K	0.00119 1/K	0.00122 1/K
10000 kPa	0.00103 1/K	0.00104 1/K	0.00105 1/K	0.00106 1/K	0.00109 1/K	0.00111 1/K	0.00113 1/K	0.00117 1/K
15000 kPa	0.00101 1/K	0.00101 1/K	0.00103 1/K	0.00104 1/K	0.00106 1/K	0.00107 1/K	0.00109 1/K	0.00111 1/K
20000 kPa	0.000982 1/K	0.000991 1/K	0.001 1/K	0.00101 1/K	0.00103 1/K	0.00104 1/K	0.00105 1/K	0.00107 1/K
25000 kPa	0.000966 1/K	0.000972 1/K	0.000977 1/K	0.000986 1/K	0.000995 1/K	0.00101 1/K	0.00102 1/K	0.00103 1/K
30000 kPa	0.000943 1/K	0.000954 1/K	0.000958 1/K	0.000963 1/K	0.000976 1/K	0.000981 1/K	0.000988 1/K	0.000996 1/K
35000 kPa	0.000933 1/K	0.000932 1/K	0.000941 1/K	0.000945 1/K	0.000952 1/K	0.000957 1/K	0.000964 1/K	0.000967 1/K
40000 kPa	0.000913 1/K	0.000916 1/K	0.00092 1/K	0.000921 1/K	0.000927 1/K	0.00093 1/K	0.00093 1/K	0.000932 1/K
45000 kPa	0.000902 1/K	0.000902 1/K	0.000904 1/K	0.000906 1/K	0.00091 1/K	0.000912 1/K	0.000914 1/K	0.000915 1/K
50000 kPa	0.000885 1/K	0.000887 1/K	0.000889 1/K	0.000891 1/K	0.000895 1/K	0.000894 1/K	0.000894 1/K	0.000894 1/K
55000 kPa	0.000871 1/K	0.000874 1/K	0.000875 1/K	0.000873 1/K	0.00088 1/K	0.00088 1/K	0.000883 1/K	0.000879 1/K

N#Cc1ccccc1 [benzonitrile]
isobaric coefficient of expansion
Conditions	5000 kPa	10000 kPa	15000 kPa	20000 kPa	25000 kPa	30000 kPa	35000 kPa	40000 kPa	45000 kPa	50000 kPa
278.15 K	0.000841 1/K	0.000831 1/K	0.000829 1/K	0.000812 1/K	0.000795 1/K	0.000791 1/K	0.00078 1/K	0.000772 1/K	0.00076 1/K	0.000752 1/K
288.15 K	0.000845 1/K	0.000832 1/K	0.000819 1/K	0.000811 1/K	0.000799 1/K	0.000789 1/K	0.000772 1/K	0.000771 1/K	0.000759 1/K	0.000754 1/K
298.15 K	0.000849 1/K	0.000832 1/K	0.000825 1/K	0.000809 1/K	0.000798 1/K	0.000788 1/K	0.000775 1/K	0.000773 1/K	0.000759 1/K	0.000749 1/K
308.15 K	0.000852 1/K	0.000842 1/K	0.000827 1/K	0.000814 1/K	0.000799 1/K	0.000788 1/K	0.000773 1/K	0.000765 1/K	0.000755 1/K	0.000743 1/K
318.15 K	0.000857 1/K	0.00084 1/K	0.000826 1/K	0.000811 1/K	0.000798 1/K	0.000789 1/K	0.000773 1/K	0.000764 1/K	0.000754 1/K	0.000743 1/K
328.15 K	0.000853 1/K	0.000837 1/K	0.000819 1/K	0.000808 1/K	0.000794 1/K	0.000782 1/K	0.000772 1/K	0.00076 1/K	0.000751 1/K	0.000736 1/K
338.15 K	0.000863 1/K	0.000843 1/K	0.000826 1/K	0.000813 1/K	0.000799 1/K	0.000786 1/K	0.000776 1/K	0.000762 1/K	0.000747 1/K	0.000738 1/K
348.15 K	0.00087 1/K	0.00085 1/K	0.000832 1/K	0.000818 1/K	0.000802 1/K	0.000788 1/K	0.000774 1/K	0.000761 1/K	0.000749 1/K	0.000737 1/K

O=[N+]([O-])c1ccccc1 [nitrobenzene]
isobaric coefficient of expansion
Conditions	288.15 K	298.15 K	308.15 K	318.15 K	328.15 K	338.15 K	348.15 K
5000 kPa	0.000818 1/K	0.000823 1/K	0.000827 1/K	0.000832 1/K	0.000837 1/K	0.000843 1/K	0.000852 1/K
10000 kPa	0.000813 1/K	0.000808 1/K	0.000812 1/K	0.00082 1/K	0.000821 1/K	0.000828 1/K	0.000827 1/K
15000 kPa	0.000797 1/K	0.0008 1/K	0.000799 1/K	0.000802 1/K	0.000802 1/K	0.000806 1/K	0.000811 1/K
20000 kPa	0.000785 1/K	0.000785 1/K	0.000787 1/K	0.000792 1/K	0.000787 1/K	0.00079 1/K	0.000794 1/K
25000 kPa	0.000775 1/K	0.000772 1/K	0.000773 1/K	0.000774 1/K	0.000774 1/K	0.000775 1/K	0.00078 1/K
30000 kPa	0.000762 1/K	0.000762 1/K	0.00076 1/K	0.000762 1/K	0.000761 1/K	0.000762 1/K	0.000764 1/K
35000 kPa	0.000749 1/K	0.000752 1/K	0.00075 1/K	0.000749 1/K	0.00075 1/K	0.000751 1/K	0.00075 1/K
40000 kPa	0.00074 1/K	0.000742 1/K	0.000737 1/K	0.000737 1/K	0.000739 1/K	0.000736 1/K	0.000734 1/K
45000 kPa	0.000729 1/K	0.000731 1/K	0.000728 1/K	0.000729 1/K	0.000726 1/K	0.000725 1/K	0.000721 1/K
50000 kPa	0.000725 1/K	0.000722 1/K	0.000719 1/K	0.000718 1/K	0.000716 1/K	0.000715 1/K	0.000711 1/K
55000 kPa	0.000717 1/K	0.000714 1/K	0.00071 1/K	0.00071 1/K	0.000707 1/K	0.000708 1/K	0.000701 1/K

CC[N+](=O)[O-] [nitroethane]
isobaric coefficient of expansion
Conditions	278.15 K	288.15 K	298.15 K	308.15 K	318.15 K	328.15 K	338.15 K	348.15 K
5000 kPa	0.00113 1/K	0.00114 1/K	0.00115 1/K	0.00117 1/K	0.00119 1/K	0.0012 1/K	0.00122 1/K	0.00126 1/K
10000 kPa	0.0011 1/K	0.00111 1/K	0.00112 1/K	0.00114 1/K	0.00116 1/K	0.00116 1/K	0.00119 1/K	0.00121 1/K
15000 kPa	0.00109 1/K	0.00109 1/K	0.0011 1/K	0.00111 1/K	0.00113 1/K	0.00113 1/K	0.00114 1/K	0.00117 1/K
20000 kPa	0.00106 1/K	0.00107 1/K	0.00107 1/K	0.00109 1/K	0.0011 1/K	0.0011 1/K	0.00111 1/K	0.00112 1/K
25000 kPa	0.00104 1/K	0.00105 1/K	0.00105 1/K	0.00106 1/K	0.00107 1/K	0.00107 1/K	0.00108 1/K	0.0011 1/K
30000 kPa	0.00102 1/K	0.00103 1/K	0.00103 1/K	0.00104 1/K	0.00105 1/K	0.00104 1/K	0.00106 1/K	0.00107 1/K
35000 kPa	0.00101 1/K	0.00101 1/K	0.00101 1/K	0.00102 1/K	0.00102 1/K	0.00103 1/K	0.00103 1/K	0.00104 1/K
40000 kPa	0.000984 1/K	0.000987 1/K	0.000993 1/K	0.000994 1/K	0.000999 1/K	0.001 1/K	0.00101 1/K	0.00101 1/K
45000 kPa	0.000973 1/K	0.000972 1/K	0.000973 1/K	0.000977 1/K	0.000981 1/K	0.000984 1/K	0.000982 1/K	0.000989 1/K
50000 kPa	0.000958 1/K	0.00096 1/K	0.00096 1/K	0.000961 1/K	0.000964 1/K	0.000964 1/K	0.000964 1/K	0.000966 1/K
55000 kPa	0.00094 1/K	0.000944 1/K	0.000941 1/K	0.000942 1/K	0.000945 1/K	0.000944 1/K	0.000945 1/K	0.000947 1/K
